In patent US20240033211A1, “EXTRACT OF AT LEAST ONE PLANT OF THE CROCUS SATIVUS SPECIES COMPRISING A HIGH CONTENT OF CROCINS AND A LOW CONTENT OF SAFRANAL, AND COSMETIC USE THEREOF AS ANTIOXIDANT” (L'OREAL, priority 2020, published 2024):

Assay: Study of squalene peroxidation (UVA, hematoporphyrin photosensitizer, singlet oxygen)
Format: biochemical
Description: Protocol: The principle of the test is to determine, via the assaying of squalene (Sq) and its photo-oxidation product, the efficacy of an active agent against this form of photo-peroxidation.
The test makes use of squalene in the presence of a photosensitizer, hematoporphyrin. Under the action of UVA rays, singlet oxygen (^1O2) is generated. This highly reactive form of oxygen degrades the squalene by oxidation of the double bonds to form squalene hydroperoxides (Sq-OOH).
In the context of the test, the exposure of squalene combined with hematoporphyrin is carried out in the presence of various concentrations of extract obtained according to Example 2 (according to the invention) and according to Example 3 (outside the invention). The reaction medium is ethanol.
Equipment and Reagents: • Squalene [Sigma S-3626] • Hematoporphyrine Free Base (approx. 70%) [Sigma—ref H-7253] • HPLC or UPLC system in reverse phase mode, detection in UV mode (205 nm)
Procedure: • ethanol solution containing 500 μg/ml of Sq and 2 μg/ml hematoporphyrin+extract to be tested • expose to UVA rays for the dose of 5 J/cm^2 • measure the amount of Sq and SqOOH before and after exposure • plot % inhibition as a function of the amount of extract tested.
*IC25: concentration of raw material needed to inhibit squalene peroxidation by 25%. […]

vitamin E
IC50 (squalene peroxidation) (comparison value for vitamin E, printed as % (=250 ppm)): ~0.025%
IC50 (concentration of raw material needed to inhibit squalene peroxidation by 50%) (solution in ethanol, UVA 5 J/cm^2): ~250 ppm
